The source of these data is the NIST ThermoML archive (doi:10.1016/j.tca.2017.03.027).

Structures are written as SMILES. Numbers after ± are expanded uncertainties.

The conditions of data set [1]: Crystal; DTA.
A short description of data set [2]: Molar enthalpy of transition or fusion. As to conditions: Crystal; DSC.

As to `CCCCCCCCCCCCCCCCCC(=O)O` [octadecanoic acid], in data set [1], the Normal melting temperature worked out at 69.00 ± 4 °C. Also, the “Molar enthalpy of transition or fusion” value in data set [2] came out at 15.1 ± 0.669 kcal/mol.
The matching figures for `CCCCCCCCCC(=O)O` [decanoic acid]: 31.10 ± 4 °C and 6.86 ± 0.311 kcal/mol.
The matching figures for `CCCCCCCCCCCCCC(=O)O` [tetradecanoic acid]: 53.70 ± 4 °C and 10.2 ± 0.454 kcal/mol.
